Read-outs that look alike come from different tables or passages of the source.
How the values were obtained:
Assay type in all cases: in vivo
soybeans = assay: Greenhouse pre-emergence GR15/GR85 selectivity test; conditions: for GR15 Rate: Table XIV
Method in brief: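 Active ingredient mixed into cover soil over seeded pans (pre-emergence soil incorporation), initial overhead irrigation equal to 0.64 cm rainfall, then subirrigation. Scored about 2-3 weeks after seeding; GR15 (crop) and GR85 (weed) rates in kg/ha, selectivity factor = crop GR15 / weed GR85.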

Barnyardgrass = assay: Field pre-emergence selectivity test; conditions: Echinochloa crus-galli, 1008 h, 6 weeks, read-out: Percent Inhibition; for inhibition at 560 g/ha: 0.56 Kg/Ha; for inhibition at 1120 g/ha: 1.12 Kg/Ha; for inhibition at 2240 g/ha: 2.24 Kg/Ha; for inhibition at 4480 g/ha: 4.48 Kg/Ha
Procedure: (§1) The compound of Examples 1 and 2 was also tested in the field to determine its pre-emergence selectivity against foxtail (spp), barnyardgrass, wild proso millet, smartweed, lambsquarters and pigweed in a plurality of crops; the data (representing three replicate runs) are shown in Table VII for both surface application (S.A.) and soil incorporation (PPI, i.e., preplant incorporation) of the herbicide. The seeds were planted in a fine seedbed of silt loam of intermediate moisture. The seeds were planted at a depth of two inches (5.08 cm). First rainfall (0.2"; 0.51 cm) occurred the day following treatment, the second rain (0.25"; […]) two days after treatment; cumulative rainfall 22 days after treatment was 1.8" (4.57 cm). Observations were made 6 weeks after treatment.

Bush Bean = assay: Field pre-emergence selectivity test; conditions: 1008 h, 6 weeks, read-out: Percent Inhibition; for inhibition at 560 g/ha: 0.56 Kg/Ha; for inhibition at 1120 g/ha: 1.12 Kg/Ha; for inhibition at 2240 g/ha: 2.24 Kg/Ha; for inhibition at 4480 g/ha: 4.48 Kg/Ha
Procedure: as §1

Field Corn = assay: Field pre-emergence selectivity test; conditions: Zea mays, 1008 h, 6 weeks, read-out: Percent Inhibition; for inhibition at 560 g/ha: 0.56 Kg/Ha; for inhibition at 1120 g/ha: 1.12 Kg/Ha; for inhibition at 2240 g/ha: 2.24 Kg/Ha; for inhibition at 4480 g/ha: 4.48 Kg/Ha
Procedure: as §1

Smartweed = assay: Field pre-emergence selectivity test; conditions: 1008 h, 6 weeks, read-out: Percent Inhibition; for inhibition at 560 g/ha: 0.56 Kg/Ha; for inhibition at 2240 g/ha: 2.24 Kg/Ha; for inhibition at 4480 g/ha: 4.48 Kg/Ha; for inhibition at 1120 g/ha: 1.12 Kg/Ha
Procedure: as §1

Sorghum = assay: Field pre-emergence selectivity test; conditions: 1008 h, 6 weeks, read-out: Percent Inhibition; for inhibition at 560 g/ha: 0.56 Kg/Ha; for inhibition at 1120 g/ha: 1.12 Kg/Ha; for inhibition at 2240 g/ha: 2.24 Kg/Ha; for inhibition at 4480 g/ha: 4.48 Kg/Ha
Procedure: as §1

foxtail (spp) = assay: Field pre-emergence selectivity test; conditions: Setaria, 1008 h, 6 weeks, read-out: Percent Inhibition; for inhibition at 560 g/ha: 0.56 Kg/Ha; for inhibition at 1120 g/ha: 1.12 Kg/Ha; for inhibition at 2240 g/ha: 2.24 Kg/Ha; for inhibition at 4480 g/ha: 4.48 Kg/Ha
Procedure: as §1

rape = assay: Field pre-emergence selectivity test; conditions: 1008 h, 6 weeks, read-out: Percent Inhibition; for inhibition at 560 g/ha: 0.56 Kg/Ha; for inhibition at 1120 g/ha: 1.12 Kg/Ha; for inhibition at 2240 g/ha: 2.24 Kg/Ha; for inhibition at 4480 g/ha: 4.48 Kg/Ha
Procedure: as §1

With `CCOCN(C(=O)CCl)c1c(C)cccc1C(F)(F)F` [Example 1, N-(ethoxymethyl)-2'-trifluoromethyl-6'-methyl-2-chloroacetanilide] the “GR15 Rate” value (soybeans) was greater than 1.1 Kg/Ha, the GR15 (soybeans; soybeans/purple nutsedge) was 1.1 kg/ha and the inhibition at 560 g/ha (Barnyardgrass; P.P.I.) was 75%. The inhibition at 1120 g/ha (Barnyardgrass; P.P.I.) was 93%, the inhibition at 2240 g/ha (Barnyardgrass; P.P.I.) was 98% and the inhibition at 4480 g/ha (Barnyardgrass; P.P.I.) was 100%. It also gave an inhibition at 560 g/ha (Barnyardgrass; S.A.) of 63%, an inhibition at 1120 g/ha (Barnyardgrass; S.A.) of 93% and an inhibition at 2240 g/ha (Barnyardgrass; S.A.) of 93%. The inhibition at 4480 g/ha (Barnyardgrass; S.A.) was 98%, the inhibition at 560 g/ha (Bush Bean; P.P.I.) was 23% and the inhibition at 1120 g/ha (Bush Bean; P.P.I.) was 10%. For the same molecule, the inhibition at 2240 g/ha (Bush Bean; P.P.I.) was 37%, the inhibition at 4480 g/ha (Bush Bean; P.P.I.) was 43% and the inhibition at 560 g/ha (Bush Bean; S.A.) was 0%. The inhibition at 1120 g/ha (Bush Bean; S.A.) was 8%, the inhibition at 2240 g/ha (Bush Bean; S.A.) was 20% and the inhibition at 4480 g/ha (Bush Bean; S.A.) was 32%. It also gave an inhibition at 560 g/ha (Field Corn; P.P.I.) of 0%, an inhibition at 1120 g/ha (Field Corn; P.P.I.) of 0% and an inhibition at 2240 g/ha (Field Corn; P.P.I.) of 5%. The inhibition at 4480 g/ha (Field Corn; P.P.I.) was 32%, the inhibition at 560 g/ha (Field Corn; S.A.) was 0% and the inhibition at 1120 g/ha (Field Corn; S.A.) was 0%. For the same molecule, the inhibition at 2240 g/ha (Field Corn; S.A.) was 0%, the inhibition at 4480 g/ha (Field Corn; S.A.) was 15% and the inhibition at 560 g/ha (Smartweed; P.P.I.) was 20%. It also gave an inhibition at 2240 g/ha (Smartweed; P.P.I.) of 75%, an inhibition at 4480 g/ha (Smartweed; P.P.I.) of 85% and an inhibition at 560 g/ha (Smartweed; S.A.) of 0%. For the same molecule, the inhibition at 1120 g/ha (Smartweed; S.A.) was 0%, the inhibition at 2240 g/ha (Smartweed; S.A.) was 50% and the inhibition at 4480 g/ha (Smartweed; S.A.) was 90%. It also gave an inhibition at 560 g/ha (Sorghum; P.P.I.) of 32%, an inhibition at 1120 g/ha (Sorghum; P.P.I.) of 53% and an inhibition at 2240 g/ha (Sorghum; P.P.I.) of 92%. For the same molecule, the inhibition at 4480 g/ha (Sorghum; P.P.I.) was 98%, the inhibition at 560 g/ha (Sorghum; S.A.) was 0% and the inhibition at 1120 g/ha (Sorghum; S.A.) was 3%. It also gave an inhibition at 2240 g/ha (Sorghum; S.A.) of 17%, an inhibition at 4480 g/ha (Sorghum; S.A.) of 77% and an inhibition at 560 g/ha (foxtail (spp); P.P.I.) of 75%. The inhibition at 1120 g/ha (foxtail (spp); P.P.I.) was 90%, the inhibition at 2240 g/ha (foxtail (spp); P.P.I.) was 98% and the inhibition at 4480 g/ha (foxtail (spp); P.P.I.) was 100%. For the same molecule, the inhibition at 560 g/ha (foxtail (spp); S.A.) was 62%, the inhibition at 1120 g/ha (foxtail (spp); S.A.) was 92% and the inhibition at 2240 g/ha (foxtail (spp); S.A.) was 93%. It also gave an inhibition at 4480 g/ha (foxtail (spp); S.A.) of 98%, an inhibition at 560 g/ha (rape; P.P.I.) of 0% and an inhibition at 1120 g/ha (rape; P.P.I.) of 0%. It also gave an inhibition at 2240 g/ha (rape; P.P.I.) of 15%, an inhibition at 4480 g/ha (rape; P.P.I.) of 40% and an inhibition at 560 g/ha (rape; S.A.) of 0%. For the same molecule, the inhibition at 1120 g/ha (rape; S.A.) was 0%, the inhibition at 2240 g/ha (rape; S.A.) was 5% and the inhibition at 4480 g/ha (rape; S.A.) was 33%.
With `CC(C)OCN(C(=O)CCl)c1ccccc1C(F)(F)F` [Example 2, N--(isopropoxymethyl)-2'-trifluoromethyl-2-chloroacetanilide] the “GR15 Rate” value (soybeans) was greater than 1.1 Kg/Ha, the inhibition at 560 g/ha (Barnyardgrass; P.P.I.) was 85% and the inhibition at 1120 g/ha (Barnyardgrass; P.P.I.) was 88%. The inhibition at 2240 g/ha (Barnyardgrass; P.P.I.) was 95%, the inhibition at 4480 g/ha (Barnyardgrass; P.P.I.) was 100% and the inhibition at 560 g/ha (Barnyardgrass; S.A.) was 50%. The inhibition at 1120 g/ha (Barnyardgrass; S.A.) was 87%, the inhibition at 2240 g/ha (Barnyardgrass; S.A.) was 90% and the inhibition at 4480 g/ha (Barnyardgrass; S.A.) was 97%. For the same molecule, the inhibition at 560 g/ha (Bush Bean; P.P.I.) was 5%, the inhibition at 1120 g/ha (Bush Bean; P.P.I.) was 13% and the inhibition at 2240 g/ha (Bush Bean; P.P.I.) was 22%. It also gave an inhibition at 4480 g/ha (Bush Bean; P.P.I.) of 63%, an inhibition at 560 g/ha (Bush Bean; S.A.) of 0% and an inhibition at 1120 g/ha (Bush Bean; S.A.) of 0%. It also gave an inhibition at 2240 g/ha (Bush Bean; S.A.) of 5%, an inhibition at 4480 g/ha (Bush Bean; S.A.) of 33% and an inhibition at 560 g/ha (Field Corn; P.P.I.) of 0%. It also gave an inhibition at 1120 g/ha (Field Corn; P.P.I.) of 0%, an inhibition at 2240 g/ha (Field Corn; P.P.I.) of 0% and an inhibition at 4480 g/ha (Field Corn; P.P.I.) of 13%. The inhibition at 560 g/ha (Field Corn; S.A.) was 0%, the inhibition at 1120 g/ha (Field Corn; S.A.) was 0% and the inhibition at 2240 g/ha (Field Corn; S.A.) was 0%. For the same molecule, the inhibition at 4480 g/ha (Field Corn; S.A.) was 10%, the inhibition at 1120 g/ha (Smartweed; P.P.I.) was 75% and the inhibition at 2240 g/ha (Smartweed; P.P.I.) was 95%. It also gave an inhibition at 560 g/ha (Smartweed; S.A.) of 0%, an inhibition at 1120 g/ha (Smartweed; S.A.) of 10% and an inhibition at 2240 g/ha (Smartweed; S.A.) of 20%. The inhibition at 4480 g/ha (Smartweed; S.A.) was 63%, the inhibition at 560 g/ha (Sorghum; P.P.I.) was 7% and the inhibition at 1120 g/ha (Sorghum; P.P.I.) was 27%. It also gave an inhibition at 2240 g/ha (Sorghum; P.P.I.) of 38%, an inhibition at 4480 g/ha (Sorghum; P.P.I.) of 90% and an inhibition at 560 g/ha (Sorghum; S.A.) of 0%. The inhibition at 1120 g/ha (Sorghum; S.A.) was 0%, the inhibition at 2240 g/ha (Sorghum; S.A.) was 5% and the inhibition at 4480 g/ha (Sorghum; S.A.) was 33%. For the same molecule, the inhibition at 560 g/ha (foxtail (spp); P.P.I.) was 77%, the inhibition at 1120 g/ha (foxtail (spp); P.P.I.) was 78% and the inhibition at 2240 g/ha (foxtail (spp); P.P.I.) was 87%. The inhibition at 4480 g/ha (foxtail (spp); P.P.I.) was 100%, the inhibition at 560 g/ha (foxtail (spp); S.A.) was 50% and the inhibition at 1120 g/ha (foxtail (spp); S.A.) was 85%. For the same molecule, the inhibition at 2240 g/ha (foxtail (spp); S.A.) was 90%, the inhibition at 4480 g/ha (foxtail (spp); S.A.) was 97% and the inhibition at 560 g/ha (rape; P.P.I.) was 0%. For the same molecule, the inhibition at 1120 g/ha (rape; P.P.I.) was 15%, the inhibition at 2240 g/ha (rape; P.P.I.) was 27% and the inhibition at 4480 g/ha (rape; P.P.I.) was 35%. It also gave an inhibition at 560 g/ha (rape; S.A.) of 0%, an inhibition at 1120 g/ha (rape; S.A.) of 5% and an inhibition at 2240 g/ha (rape; S.A.) of 0%. For the same molecule, the inhibition at 4480 g/ha (rape; S.A.) was 30%.
